According to patent publication US20040259732A1, “Treatment of plants and plant propagation materials with an antioxidant to improve plant health and/or yield” (Monsanto Technology, L.L.C., priority 2003, published 2004):

Assays:
carrot seeds = conditions: seed soak: gibberellic acid 1 and 100 microgram/l, Ambiol 0.1 mg/l, glycinebetaine 100 mg/l; cited from earlier work
[1] = tested on: seeds of black spruce and jack pine; conditions: seed soak at 0, 0.1, and 10 mg/l; cited from earlier work
carrot seed = carrot seed treatment; cited from earlier work
corn seed = experiment: Field trials, emergence in cold conditions by seed treatment rate; format: in vivo; conditions: rates from 25 g/100 Kg to 250 g/100 Kg
Description: (§1) Samples of seed having each type of treatment shown in Table 3 were planted in a controlled field trial in the upper Midwestern United States. Conservation tillage practices were adhered to and planting was accomplished during the first 10% of the crop that got planted in that area. During the trial, the plant density (number of plants per acre) and the corn yield (bu/acre) were measured.

Hybrid "A" corn seeds = experiment: Cold condition germination test (Test 3), Hybrid A corn seeds; format: in vivo; conditions: 10° C.
Description: (§2) This test was designed to measure the ability of seeds to germinate under adverse condition associated with high moisture and low temperature. Test 3-This test was conducted as described above in Test 1, except that the Petri dishes were incubated at a constant temperature of 10° C. Germination rate was determined as described above in Test 1. The test length continued for 30 days as the seeds are very slow to germinate under these conditions.

corn seeds = conditions: optimum (warm) conditions; any of the treatment levels tested (10-250 g/100 kg seed)
Description: Test 1—Ten seeds for each sample to be tested are placed in each of ten Petri dishes with 5 ml of distilled water and incubated at 30° C. day and 20° C. night with a 16 hour day length. Each day the Petri dishes were checked and scored for germination. Percent germination was determined as the average number of seeds which had germinated within the test period minus any abnormal seeds, divided by the total number of original seeds, times 100. A seed was considered germinated when the radical reached a length of 1 cm.
Test 2—Test 2 is much closer to an industry standard for optimum condition testing. Test seeds are placed on a moist paper towel and then covered with a second moist paper towel. The towel is then rolled into a cylinder and placed upright in a beaker containing water. The beaker is placed in an incubation chamber at 25° C. for 7 days in continuous darkness. After 7 days the number of seeds germinated are counted and converted to a percentage of seeds in the test. This test is used to determine the maximum germination potential of the seed.
After treatment, each seed sample was tested for germination in as described in Test 1, Test 2 and Test 3, as described above.

[2] = tested on: Corn plantlets (Hybrid LH176rr1.4(LH224×LH226)); experiment: Fresh weight accumulation after cold stress, corn plantlets; format: in vivo; conditions: seed treated with 50-100 g/100 kg; 6 days 18° C./12° C.
[3] = tested on: Hybrid "B" (cold sensitive) corn; conditions: 10° C.
Description: (§3) This test was designed to measure the emergence of plantlets from sprouted seeds under conditions that more closely resemble those found in field conditions.
(§4) For each sample batch of seed to be tested, 10 seeds were placed on ½″ of soil medium in a test tray and covered with an additional 2″ of soil medium. Three replications were prepared for each sample batch. The soil is moistened regularly and placed in the desired temperature regime. For a cold emergence test, trays are incubated at 10° C. with 16 hours of light. The tray is monitored daily over a 30-day period and a seed is counted as emerged when the spike breaks through the surface of the soil. Percent emergence is calculated as the number of emerged plantlets divided by the total number of seeds that were planted, times 100.
(§5) Corn hybrids “A” and “B”, as described above were treated with choline chloride at levels of 0, 10, 25 and 50 g/100 kg of seed. Each batch of seed was tested under 10° C. incubation conditions for emergence from a soil medium as described above.

[4] = tested on: Hybrid "A" (cold tolerant) corn; conditions: 10° C.; 25 g/100 kg seed
Description: as §3, §4, §5

Hybrid "B" corn seeds = experiment: Cold condition germination test (Test 3), Hybrid B corn seeds; format: in vivo; conditions: 10° C.
Description: as §2

[5] = tested on: Soybean plantlets (Hybrid AG3303); experiment: Fresh weight accumulation after cold shock, soybean plantlets; format: in vivo; conditions: seed treated with 10-20 g/100 kg; one week 22° C./13° C.; measured 10 days after return to greenhouse
Description: Soybean plantlets (Hybrid AG3303, available from Asgrow Seed Co., St. Louis, Mo.) that were grown in a greenhouse maintained at day/night temperatures of 30° C. day and 25° C. night and with a 12 hour light period. The seed had been treated with different levels of glycinebetaine and were grown in optimum greenhouse conditions until they reached the first trifoliate stage of development. The plants were then moved from the greenhouse and subjected to 22° C./13° C. day/night temperatures for one week in a Conviron growth chamber. After one week the plants were returned to the greenhouse for “recovery” in optimal conditions. The fresh weight accumulation of the plantlets was then measured after 10 days following their return to the greenhouse.

cotton seeds = conditions: treated cotton seeds; cited from earlier work
[6] = tested on: Corn seeds (Hybrid LH176rr1.4(LH224×LH226)); format: in vivo; conditions: field trial
Description: Corn seeds (Hybrid LH176rr1.4(LH224×LH226, available from Holden's Foundation Seeds, Inc., Williamsburg, Iowa) were treated with an antioxidant, alone or in combination with a pesticide (silthiofam, available from Monsanto Co., St. Louis, Mo., under the trade name […]®, 11.83% w/w silthiofam) according to the rates shown in Table 3.
as §1

Structure (SMILES): Cc1nc2ccc(O)c(CN(C)C)c2[nH]1 [Ambiol, 2-methyl-4-[dimethylaminomethyl]-5-hydroxybenzimidazole]
- emergence of seedlings (carrot seeds): accelerated emergence of seedlings
- membrane leakage [1]: reduced membrane leakage
- germination in carrots (carrot seed): hastened germination

Structure (SMILES): C[N+](C)(C)CCO.[Cl-] [choline chloride]
- emergence as a function of rate (corn seed): emergence is found to increase with the increase of the rate
- 50% germination earlier than untreated control (Hybrid "A" corn seeds; 100 g/100 kg (best rate)): two days earlier
- effect on germination rate (Hybrid "A" corn seeds; lower treatment rates, FIG. 1A / FIG. 2A): substantially the same effect
- effect on germination under normal growing conditions (corn seeds): no negative effects on germination
- fresh weight accumulation after cold shock vs untreated seed [2]: tendency for greater fresh weight accumulation
- days after seeding at which 50% germination was reached ([3]; 10 g/100 kg seed): 29 days
- increase in germination time over untreated control ([3]; 10 g/100 kg seed, study end 31 days): minimum of two days
- first evidence of emergence ([3]; 10 g/100 kg treated seed): 21 days
- 50% emergence earlier than untreated control [4]: three days before the untreated control
- day on which 50% emergence was reached [4]: 22 days
- 50% germination earlier than untreated control (Hybrid "B" corn seeds; 50 g/100 kg): three days earlier
- 50% germination earlier than untreated control (Hybrid "B" corn seeds; 100 g/100 kg): three days earlier

Structure (SMILES): C=C1C[C@]23C[C@@]1(O)CC[C@H]2[C@@]12C=C[C@H](O)[C@@](C)(C(=O)O1)[C@H]2[C@@H]3C(=O)O [gibberellic acid]
- emergence of seedlings (carrot seeds): accelerated emergence of seedlings

Structure (SMILES): C[N+](C)(C)CC(=O)[O-] [glycinebetaine]
- emergence of seedlings (carrot seeds): accelerated emergence of seedlings
- fresh weight accumulation following the cold shock [5]: greater fresh weight accumulation
- 50% germination earlier than untreated control (Hybrid "B" corn seeds; 50 g/100 kg): three-day earlier germination
- 50% germination earlier than untreated control (Hybrid "B" corn seeds; 100 g/100 kg): three-day earlier germination
- drought tolerance (cotton seeds): improvement in drought tolerance
- germination in carrots (carrot seed): hastened germination

Structure (SMILES): C=CCNC(=O)c1c([Si](C)(C)C)sc(C)c1C [silthiofam, 4,5-dimethyl-N-(2-propenyl)-2-(trimethylsilyl)-3-thiophenecarboxamide]
- corn yield improvement over untreated control ([6]; rates of Table 3 (silthiofam 25, choline chloride 250, glycinebetaine 50, BHA/BHT 10 g/100 kg seed), FIGS. 7B and 7C): ~20%
- corn plant density (number of plants per acre) ([6]; rates of Table 3, FIG. 7A): significant improvement in corn plant density
